Results taken from US20250090510A1, “eIF4G1-eIF1 INHIBITORS AND USE THEREOF” (YEDA RESEARCH AND DEVELOPMENT CO. LTD., priority 2022, published 2025).

Legend:
HEK293T cells = assay: Polysome profile by sucrose gradient sedimentation; type: cell-based, human; settings: i14G1-12 10 μM, 3 h; for 80S monoribosomes in polysome profile: i14G1-10 20 μM
Protocol: FIGS. 3A-F: i14G1-10 and i14G1-12 inhibit mRNA translation and sensitize cell survival of eIF4G1 and eIF1 depleted cells. (3A) In-vitro translation using rabbit reticulocyte lysate which was pre-incubated with different concentrations of i14G1-10 or i14G1-12 for 10 minutes followed by the addition of capped firefly luciferase mRNA. After 90 minutes at 30° C., the luminescence signal was measured and the IC50 was calculated. The data represents mean±SEM of 6 independent repeats. (3B) HEK293T cells were treated with DMSO (vehicle control), and sub-cytotoxic concentrations of i14G1-10 (20 μM) and i14G1-12 (10 μM) for 3h. Cell lysates were then subjected to sucrose gradient sedimentation to obtain polysome profiles. (3C) HEK293T cells were treated with the indicated concentrations of i14G1-10 and i14G-12 for 3 h, followed by the addition of puromycin (10 μg/ml) for 5 minutes, after which cells were lysed and analyzed by western blot using an anti-puromycin antibody and anti-GAPDH antibody that serves as a loading control. The graph represents the mean±SEM chemiluminescence signal intensity of puromycin labeling normalized to GAPDH of 3 independent experiments. The calculated IC-50 is shown. (3D) HEK293T cells were transfected with either control or eIF4G1 siRNA in the absence or presence of eIF4G1 expression plasmid. As the eIF4G1 siRNA pool is directed against the 3′UTR, which is absent from the eIF4G1 expression plasmid, the exogenous eIF4G1 is resistant to the siRNA. […] The calculated IC-50 is shown. (3E) The graphs represent cell viability of the indicated cell lines in the presence of increasing concentrations of i14G1-10 and i14G1, analyzed by Luminescent Cell Viability Assay. […]
Polysome profile and real-time PCR. […] Gradients were fractionated with continuous absorbance measurement at 254 nm using ISCO absorbance detector UA-6. Fractions were pooled according to their absorbance into Free, Light, and Heavy ribosomal fractions. […]

[1] = test system: 5′UTR length-dependent translation in HEK293T cells; assay: Firefly luciferase reporters with long (354 nt) and short (111 nt) 5′UTR; type: cell-based, human; settings: 5 μM, 16 h
Protocol: FIGS. 5A-D: 5′UTR length-dependent translational control by the eIF1-eIF4G1. […] The asterisks denote a statistically significant difference. **p<0.01, ****p<0.0001. (5B) A scheme of the firefly reporter genes that are driven by long (354 nt) and short (111 nt) 5′ UTR length, is shown on the top. HEK293T cells were transfected with these reporter genes. After 4 h, transfected cells were treated with DMSO, i14G1-10 (5 μM), or i14G1-12 (5 μM) for 16 h and analyzed for firefly luciferase activities. The graph presents the normalized luminescence activity of the long 5′UTR and the short 5′UTR reporters in the indicated treatments. The data are shown as mean±SEM, n=6. The asterisks denote statistically significant difference compared to DMSO, according to Student's t-tests (one-tailed, paired). *p<0.05; **p<0.01. (5C-D) HEK293T cells were treated with DMSO, i14G1-10, and i14G1-12 for 3 h, lysed, and subjected to sucrose gradient sedimentation and fractionation. Fractions were pooled according to polysome profile as free (grey), light (blue), and heavy (yellow) polysomal fractions. cDNA was prepared from each fraction pool and real-time PCR was performed for the indicated TISU genes (5C) or histone genes (5D). The data are shown as mean±SEM, n=3. The asterisks denote statistically significant difference compared to DMSO, according to Student's t-tests (one-tailed, paired), *p<0.05; **p<0.01.
Since both eIF1 and eIF4G1 are important for scanning, the relationship between the translational effects of the inhibitors and the 5′UTR length was examined. […] To investigate further the link between the effect of the drug and 5′UTR length, we used two firefly luciferase reporters we used that differ only in their 5′UTR length: a short 5′UTR with 111 nucleotides and a long 5′UTR with 354 nucleotides. […] These findings confirm the inhibitory effect of these compounds on the scanning promoting activity of the eIF1-eIF4G1 complex.

## O=C(/C=C/Sc1ccc(C(F)(F)F)cn1)c1ccccc1 [i14G1-10]
HEK293T cells
  80S monoribosomes in polysome profile: increase in 80S monoribosomes
[1]
  luciferase reporter expression driven by the longer 5′UTR (354 nucleotides): significantly decreased
  luciferase reporter expression driven by the shorter 5′UTR (111 nucleotides): did not affect

## Cn1ccnc1S/C(=C/C=C(C#N)C#N)c1ccc(Cl)cc1 [i14G1-12]
HEK293T cells
  80S monoribosomes in polysome profile: increase in 80S monoribosomes
  heavy polysomal fractions in polysome profile: substantial decrease in the heavy polysomal fractions
[1]
  luciferase reporter expression driven by the longer 5′UTR (354 nucleotides): significantly decreased
  luciferase reporter expression driven by the shorter 5′UTR (111 nucleotides): did not affect
